The record followed here is ChEMBL document CHEMBL1201862, “PubChem BioAssay data set” (2004).

SMILES strings stand for the structures.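 Step 1: Grow cells in 96-well plates. Step 2: Expose to compound for 48 hours at 5 concentrations. Step 3: Interpolate endpoints linearly; if unreached, use highest concentration. Abbreviation: GI50, concentration required for 50% inhibition of growth.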 Active and inactive are the calls of the source. No stated cut-off is given here; in the data, active = GI50 up to about 1.1 µM and inactive = higher.

Test systems include SF-295; COLO 205; MDA-MB-231; SK-MEL-2; RXF 393; K562; NCI-H460; OVCAR-5; OVCAR-4; NCI-H23; HL-60; MDA-N; NCI-H226; HCT-15; A498; HT-29; OVCAR-3; TK-10; HOP-92; MOLT-4.
Assay in all cases: growth of human tumour cells (NCI), 48 h

For `Cc1cc(=O)[nH]c(-n2[nH]c(C)c(CCO)c2=O)n1`, the GI50 in the assay with SF-295, in the assay on COLO 205, in the assay on MDA-MB-231, in the assay on SK-MEL-2, in the assay on RXF 393 and with K562 was > 100 µM (inactive) throughout. The GI50 in the assay with NCI-H460, in the assay on OVCAR-5, in the assay on OVCAR-4, in the assay with NCI-H23, in the assay on HL-60 and in the assay with MDA-N was > 100 µM (inactive) in each case. The GI50 in the assay with NCI-H226 was > 100 µM (inactive); in the assay with HCT-15, more than 100 µM; in the assay with A498 it was > 100 µM (inactive); with HT-29, > 100 µM (inactive); in the assay on OVCAR-3 it was > 100 µM (inactive); in the assay on TK-10, > 100 µM (inactive).

As for `Cc1cc(C)nc(NS(=O)(=O)c2ccc(NNc3c4ccccc4nc4c(C(=O)Nc5ccc(S(=O)(=O)N=C(N)N)cc5)cccc34)cc2)n1`, the GI50 in the assay with SF-295 was 77.3 µM (inactive); in the assay with HOP-92, 35.6 µM (inactive); in the assay on COLO 205 it was 36.1 µM (inactive); in the assay with MDA-MB-231 it was 49.1 µM (inactive); in the assay with SK-MEL-2, 3.64 µM (inactive); in the assay with RXF 393, > 100 µM (inactive). For the same molecule, the GI50 was 31.4 µM (inactive) in the assay with K562; 34.9 µM (inactive) in the assay on MOLT-4; 47.4 µM (inactive) in the assay with NCI-H460; 25.1 µM (inactive) in the assay on OVCAR-5; 65.2 µM (inactive) in the assay on OVCAR-4; 55.8 µM (inactive) in the assay on NCI-H23. Further, the GI50 in the assay on HL-60 was 37.5 µM (inactive); with MDA-N it was 49.5 µM (inactive); in the assay with NCI-H226, 49.7 µM (inactive); in the assay on HCT-15 it was 63.4 µM; in the assay with HT-29 it was 26.6 µM (inactive); in the assay on OVCAR-3, 31.8 µM (inactive). In the assay with TK-10, the GI50 was > 100 µM (inactive).

In the case of `COC1OC2COC(C)(C)OC2C2OC(C)(C)OC12` (configuration not stated), the GI50 in the assay on SF-295 was 22.6 µM (inactive); in the assay with COLO 205 it was 46.5 µM (inactive); in the assay with MDA-MB-231, 16 µM (inactive); in the assay on SK-MEL-2, > 100 µM (inactive); in the assay on RXF 393 it was 23.7 µM (inactive); in the assay with K562 it was 33.7 µM (inactive). Also, the GI50 was 25.3 µM (inactive) in the assay with MOLT-4; > 100 µM (inactive) in the assay with OVCAR-5; 22.2 µM (inactive) with OVCAR-4; 82.4 µM (inactive) in the assay with NCI-H23; 69.5 µM (inactive) in the assay on MDA-N; 23.8 µM (inactive) in the assay with NCI-H226. Also, the GI50 with HCT-15 is more than 100 µM; in the assay with A498, 55.2 µM (inactive); in the assay with HT-29, 60.5 µM (inactive); in the assay with OVCAR-3, > 100 µM (inactive); with TK-10, 49.8 µM (inactive).

Take `COC1=C(Br)[C@H](O)[C@@]2(C=C1Br)CC(C(=O)NCCCCCNC(=N)N)=NO2` [APLYSINAMISINE II]: the GI50 with SF-295, with COLO 205, in the assay on MDA-MB-231, with SK-MEL-2, in the assay on RXF 393 and with K562 was > 10 µM (inactive) in each case. In addition, the GI50 in the assay with MOLT-4, with NCI-H460, with OVCAR-5, with OVCAR-4, in the assay with NCI-H23 and in the assay on HL-60 was > 10 µM (inactive) in each case. The GI50 is > 10 µM (inactive) in the assay with MDA-N; > 10 µM (inactive) in the assay on NCI-H226; more than 10 µM with HCT-15; > 10 µM (inactive) in the assay on A498; > 10 µM (inactive) in the assay with HT-29; > 10 µM (inactive) with OVCAR-3. Further, in the assay with TK-10, the GI50 is > 10 µM (inactive).

As to `COc1ccc(CCN2CCN(CCCc3ccccc3)CC2)cc1`, the GI50 in the assay with SF-295 is > 100 µM (inactive); in the assay on COLO 205, 22.9 µM (inactive); in the assay with MDA-MB-231, > 100 µM (inactive); with SK-MEL-2, > 100 µM (inactive); in the assay on K562, 38.6 µM (inactive); with MOLT-4 it was 92 µM (inactive). Besides, the GI50 in the assay on NCI-H460 is 84.5 µM (inactive); with OVCAR-5 it was 77.1 µM (inactive); in the assay on OVCAR-4, 71.6 µM (inactive); in the assay with NCI-H23, 64.3 µM (inactive); in the assay with HL-60, > 100 µM (inactive); in the assay on MDA-N, > 100 µM (inactive). In addition, the GI50 is > 100 µM (inactive) with NCI-H226; 37.7 µM in the assay on HCT-15; > 100 µM (inactive) in the assay on A498; 33.5 µM (inactive) in the assay on HT-29; 80 µM (inactive) in the assay on OVCAR-3; 64.4 µM (inactive) with TK-10.

Regarding `CC(NC(=O)Cc1ccc(OP(=O)(OCc2ccc([N+](=O)[O-])o2)N(C)CCCCCl)cc1)c1ccc(OCC2CCCCC2)c(C(N)=O)c1` (configuration not stated), the GI50 in the assay with SF-295 was 2.24 µM (inactive); in the assay on COLO 205, 1.63 µM (inactive); with MDA-MB-231 it was 2.08 µM (inactive); with SK-MEL-2 it was 2.26 µM (inactive); in the assay with RXF 393 it was 1.99 µM (inactive); with K562, 2.77 µM (inactive). The GI50 is 1.52 µM (inactive) in the assay with MOLT-4; 2.79 µM (inactive) with NCI-H460; 3.01 µM (inactive) with OVCAR-5; 2.16 µM (inactive) in the assay on OVCAR-4; 2.08 µM (inactive) in the assay with NCI-H23; 2.22 µM (inactive) with HL-60. In addition, the GI50 in the assay with MDA-N is 1.88 µM (inactive); in the assay on NCI-H226 it was 2.48 µM (inactive); in the assay on HCT-15 it was 2.39 µM; in the assay with A498, 3.01 µM (inactive); in the assay with HT-29 it was 1.39 µM (inactive); in the assay on OVCAR-3, 1.66 µM (inactive). Also, the GI50 in the assay with TK-10 was 3.22 µM (inactive).

For `CC(C)C1CN1CC(O)Cn1ccnc1[N+](=O)[O-]` (configuration not stated), the GI50 in the assay on SF-295, with COLO 205, in the assay with MDA-MB-231, with SK-MEL-2, in the assay on K562 and with MOLT-4 was > 100 µM (inactive) each time. Also, the GI50 with NCI-H460 is > 100 µM (inactive); in the assay on OVCAR-5, > 100 µM (inactive); in the assay with OVCAR-4 it was > 100 µM (inactive); in the assay on NCI-H23, > 100 µM (inactive); with HL-60, > 10 µM (inactive); with MDA-N, > 100 µM (inactive). Also, the GI50 is > 100 µM (inactive) with NCI-H226; more than 100 µM in the assay with HCT-15; > 100 µM (inactive) in the assay with A498; > 100 µM (inactive) in the assay on HT-29; > 100 µM (inactive) in the assay with OVCAR-3; > 100 µM (inactive) in the assay on TK-10.

Take `COc1nc2ccc(CNc3ccc(C(=O)O)cc3)cc2nc1OC`: the GI50 in the assay with SF-295, in the assay on COLO 205, with MDA-MB-231, in the assay with SK-MEL-2, in the assay on RXF 393 and with K562 was > 10 µM (inactive) throughout. Besides, the GI50 with MOLT-4, in the assay with NCI-H460, with OVCAR-5, in the assay with OVCAR-4, in the assay with NCI-H23 and with HL-60 was > 10 µM (inactive) each time. Besides, the GI50 in the assay on MDA-N was > 10 µM (inactive); with NCI-H226, > 10 µM (inactive); in the assay with HCT-15 it was more than 10 µM; with A498, > 10 µM (inactive); in the assay on HT-29, > 10 µM (inactive); in the assay with OVCAR-3, > 10 µM (inactive). Moreover, the GI50 in the assay with TK-10 was > 10 µM (inactive).

On to `CCOC(=O)c1nc[nH]c1/N=N/N(C)N`, for which the GI50 is 91.2 µM (inactive) with SF-295; 36.6 µM (inactive) in the assay on COLO 205; > 100 µM (inactive) in the assay with MDA-MB-231; > 100 µM (inactive) in the assay on SK-MEL-2; > 100 µM (inactive) in the assay on RXF 393; > 10 µM (inactive) in the assay on K562. Moreover, the GI50 with MOLT-4 is 44.2 µM (inactive); in the assay on NCI-H460 it was 25.3 µM (inactive); with OVCAR-5, > 100 µM (inactive); with OVCAR-4, > 100 µM (inactive); in the assay with NCI-H23, > 100 µM (inactive); in the assay with HL-60, 29.2 µM (inactive). Moreover, the GI50 in the assay with MDA-N was > 100 µM (inactive); with NCI-H226, > 100 µM (inactive); in the assay on HCT-15, 91.4 µM; in the assay on A498, 40.6 µM (inactive); with HT-29 it was 61.1 µM (inactive); in the assay with OVCAR-3 it was > 100 µM (inactive). For the same molecule, in the assay with TK-10, the GI50 is > 100 µM (inactive).

As to `O=C(NC/C=C/Br)NC1CCNc2ccccc21` (configuration not stated), the GI50 with SF-295 is 45.4 µM (inactive); with COLO 205 it was 18.7 µM (inactive); with MDA-MB-231 it was 41 µM (inactive); in the assay on SK-MEL-2, 30.1 µM (inactive); in the assay on RXF 393, 29.2 µM (inactive); in the assay with K562, 30.1 µM (inactive). The GI50 in the assay with MOLT-4 is 56.8 µM (inactive); in the assay with NCI-H460, 34.9 µM (inactive); in the assay with OVCAR-5, 55.3 µM (inactive); in the assay with OVCAR-4, 72.1 µM (inactive); in the assay with NCI-H23, 16.8 µM (inactive); with HL-60, 32.1 µM (inactive). Also, the GI50 in the assay with MDA-N is 31.9 µM (inactive); with NCI-H226 it was 38.8 µM (inactive); in the assay with HCT-15, 37.3 µM; with A498, 31.9 µM (inactive); with HT-29, 15.7 µM (inactive); in the assay on OVCAR-3, 47.2 µM (inactive). Besides, the GI50 in the assay on TK-10 is 42.3 µM (inactive).

Take `C=C1C(=O)OC2C1CC(OC(C)=O)/C(C)=C/CCC1(C)OC21` (configuration not stated): the GI50 in the assay with SF-295, with HOP-92, in the assay with COLO 205, in the assay on MDA-MB-231, with SK-MEL-2 and with K562 was > 100 µM (inactive) each time. Moreover, the GI50 in the assay on MOLT-4, with NCI-H460, with OVCAR-5, with OVCAR-4, in the assay on NCI-H23 and in the assay with HL-60 was > 100 µM (inactive) in each case. For the same molecule, the GI50 in the assay on MDA-N was > 100 µM (inactive); with NCI-H226 it was > 100 µM (inactive); in the assay with HCT-15, more than 100 µM; in the assay on HT-29, > 100 µM (inactive); in the assay with OVCAR-3, > 100 µM (inactive).
